{
  "source": "paper PMC4691102",
  "about": "“Antioxidant and ACE Inhibitory Bioactive Peptides Purified from Egg Yolk Proteins” (International Journal of Molecular Sciences, 2015)",
  "key": {"[1]": {"experiment": "Lipid oxidation in linoleic acid model system, TBARS method", "details": "positive control 0.2 mg/mL; after four days incubation at 40 °C; 532 nm; mean of three independent experiments", "experimental": "(§1) The inhibition of lipid peroxidation by the EYPH fractions was measured using linoleic acid oxidized as described below. The degree of oxidation was measured using (FTC) and (TBARS) methods. In order to prepare the reaction mixture, 50 mg of each sample was dissolved individually with 10 mL absolute ethanol, 0.13 mL linoleic acid, 4.87 mL distilled water and 10 mL 50 mM sodium phosphate buffer (pH 7). Samples were homogenized by a sonicator (Labsonic® M, B. Braun Biotech International, Melsungen, Germany). The tubes were then sealed tightly with silicone rubber caps and kept in the dark at 40 °C in an oven. […] A negative control was prepared in the same manner using distilled water in place of egg yolk hydrolysates. The commercial antioxidants, 0.2 mg/mL of BHT and trolox were also used as positive controls. […] The absorbance of the upper layer was measured at 532 nm using a spectrophotometer (Kontron Instrument UNIKON 860) Malonaldehyde standard curve was prepared using 1,1,3,3-tetramethoxypropane and TBARS were expressed as μg of malonaldehyde/mL. The percentage (%) of lipid oxidation inhibition was calculated according to the following formula: Lipid oxidation inhibition (%)=Absorbance of control − Absorbance of sample/Absorbance of control×100"}, "[2]": {"experiment": "DPPH radical scavenging activity", "details": "for DPPH Scavenging activity: standard 0.2 mg/mL, 60 min, room temperature, dark, 517 nm, mean ± SD of three independent experiments; for Antioxidant activity (DPPH scavenging) of peptide compared with synthetic antioxidant: peptide 10 mg/mL versus 0.2 mg/mL BHT (Figure 7), abstract prints BHA", "experimental": "The method used was in accordance with Bersuder et al. using the synthetic free radical DPPH. Briefly, a volume of 500 μL of selected fractions at different concentrations (0.5, 1, 5, 10 and 20 mg/mL) was mixed with 500 μL of 99.5% ethanol and 125 μL of 0.02% w/v DPPH prepared previously in 99.5% ethanol. The mixture was shaken vigorously then kept at room temperature in the dark. After 60 min, the color reduction of the DPPH substrate was measured at an absorbance of 517 nm. Trolox and BHT (both used at concentration 0.2 mg/mL) were also tested as positive controls for comparison. The DPPH radical scavenging activity was calculated as follows: Radical scavenging activity (%)=AC−AS/AC×100 where AC is the absorbance for negative control using 500 μL deionized water instead of sample, AS is the absorbance of the sample or positive controls (trolox/BHT). A lower absorbance of the reaction mixture indicated a higher DPPH radical-scavenging activity."}, "[3]": {"experiment": "Hydroxyl radical scavenging activity (HRSA) assay", "details": "standard 0.2 mg/mL, 37 °C 1 h, pH 7.4, 532 nm, mean ± SD of three independent experiments", "experimental": "The HRSA assay was performed as described by Wu et al.. The reaction mixture consisted of 0.1 mL of 10 mM FeSO4, 0.1 mL of 10 mM EDTA, 0.5 mL of 10 mM α-deoxyribose, 0.9 mL sodium phosphate buffer pH 7.4, and 0.2 mL of peptides at different concentrations (0.5, 1, 5, 10 and 20 mg/mL). All reagents were then thoroughly mixed in a tube and 0.2 mL of 10 mM hydrogen peroxide was added. The reaction mixture was then incubated at 37 °C for 1 h. Following incubation, 1 mL of 2.8% TCA and 1 mL of 1.0% TBA were added to the test tubes, and the contents boiled for 15 min. After cooling at room temperature, the absorbance of the mixture was measured at 532 nm. Trolox and BHT (both used at concentration 0.2 mg/mL) were also tested as positive controls for comparison. The HRSA was evaluated as a percentage of α-deoxyribose oxidation inhibition by the hydroxyl radical and calculated as follows: HRSA (%)=AC−AS/AC×100 where AC is the absorbance for negative control using 500 μL deionized water instead of sample, AS is the absorbance of the sample or positive controls (trolox/BHT)."}, "[4]": {"experiment": "Superoxide anion scavenging activity (pyrogallol autoxidation)", "details": "standard 0.2 mg/mL, Tris-HCl pH 8.2, 25 °C, 320 nm, mean ± SD of three independent experiments", "experimental": "In this assay, the alkaline condition enhances the autoxidation of pyrogallol to produce a superoxide anion, which, in turn, accelerates the autoxidation process by autocatalysis. The autoxidation of a pyrogallol method described by Marklund and Marklund was applied to measure the superoxide anion scavenging power of egg yolk peptides. The reaction mixture consisted of 1.0 mL of peptides sample at different concentrations ([…], 5.0, 10 and 20 mg/mL) and 1.8 mL of 50 mM Tris-HCl buffer, previously adjusted to pH 8.2. The mixture was incubated at 25 °C for 20 min. Then, 40 μL of 45 mM pyrogallol (prepared previously in 10 mM HCl) was added. The absorbance of the reaction mixture was measured at 320 nm immediately after adding pyrogallol at 1 min intervals up to 4 min. Trolox and BHT (both used at a concentration of 0.2 mg/mL) were also tested as positive controls for comparison."}, "[5]": {"experiment": "Lipid oxidation in linoleic acid model system, ferric thiocyanate (FTC) method", "details": "positive control 0.2 mg/mL; after four days incubation at 40 °C; 500 nm; mean of three independent experiments", "experimental": "as §1, with “[…] After exactly 3 min, the absorbance” for “The commercial antioxidants, 0.2 mg/mL”, “the resulting ferric thiocyanate solution was read at 500 nm using a spectrophotometer (Kontron Instrument UNIKON 860, Cambridge, UK).” for “BHT and trolox were also used as positive controls.”"}, "[6]": {"experiment": "Ferrous chelating activity assay (ferrozine)", "details": "EDTA 0.2 mg/mL, 10 min room temperature, 563 nm, mean ± SD of three independent experiments", "experimental": "The activity of the peptide to chelate ferrous Fe^2+ ions was measured according to the method of Ebrahimzadeh et al.. The reaction mixture contained 0.5 mL of isolated peptides at different concentrations (0.5, 1, 5, 10 and 20 mg/mL), 1.6 mL deionized water and 0.05 mL of 2 mM FeCl2. After 30 s, 0.1 mL of 5 mM ferrozine was added. After 10 min at room temperature, the absorbance of the Fe^2+-ferrozine complex was measured at 563 nm. EDTA (0.2 mg/mL) was also tested as a positive control for comparison. The activity of the peptide to chelate Fe^2+ was calculated as: Chelating ability (%) =AC−AS/AC×100 where AC is the absorbance of the control, using 0.5 mL deionized water instead of sample, AS is the absorbance of the sample or positive control EDTA."}, "[7]": {"biological_target": "angiotensin converting enzyme (ACE) (Homo sapiens, UniProt P12821)", "sequence (P12821 30-1306, species assumed)": "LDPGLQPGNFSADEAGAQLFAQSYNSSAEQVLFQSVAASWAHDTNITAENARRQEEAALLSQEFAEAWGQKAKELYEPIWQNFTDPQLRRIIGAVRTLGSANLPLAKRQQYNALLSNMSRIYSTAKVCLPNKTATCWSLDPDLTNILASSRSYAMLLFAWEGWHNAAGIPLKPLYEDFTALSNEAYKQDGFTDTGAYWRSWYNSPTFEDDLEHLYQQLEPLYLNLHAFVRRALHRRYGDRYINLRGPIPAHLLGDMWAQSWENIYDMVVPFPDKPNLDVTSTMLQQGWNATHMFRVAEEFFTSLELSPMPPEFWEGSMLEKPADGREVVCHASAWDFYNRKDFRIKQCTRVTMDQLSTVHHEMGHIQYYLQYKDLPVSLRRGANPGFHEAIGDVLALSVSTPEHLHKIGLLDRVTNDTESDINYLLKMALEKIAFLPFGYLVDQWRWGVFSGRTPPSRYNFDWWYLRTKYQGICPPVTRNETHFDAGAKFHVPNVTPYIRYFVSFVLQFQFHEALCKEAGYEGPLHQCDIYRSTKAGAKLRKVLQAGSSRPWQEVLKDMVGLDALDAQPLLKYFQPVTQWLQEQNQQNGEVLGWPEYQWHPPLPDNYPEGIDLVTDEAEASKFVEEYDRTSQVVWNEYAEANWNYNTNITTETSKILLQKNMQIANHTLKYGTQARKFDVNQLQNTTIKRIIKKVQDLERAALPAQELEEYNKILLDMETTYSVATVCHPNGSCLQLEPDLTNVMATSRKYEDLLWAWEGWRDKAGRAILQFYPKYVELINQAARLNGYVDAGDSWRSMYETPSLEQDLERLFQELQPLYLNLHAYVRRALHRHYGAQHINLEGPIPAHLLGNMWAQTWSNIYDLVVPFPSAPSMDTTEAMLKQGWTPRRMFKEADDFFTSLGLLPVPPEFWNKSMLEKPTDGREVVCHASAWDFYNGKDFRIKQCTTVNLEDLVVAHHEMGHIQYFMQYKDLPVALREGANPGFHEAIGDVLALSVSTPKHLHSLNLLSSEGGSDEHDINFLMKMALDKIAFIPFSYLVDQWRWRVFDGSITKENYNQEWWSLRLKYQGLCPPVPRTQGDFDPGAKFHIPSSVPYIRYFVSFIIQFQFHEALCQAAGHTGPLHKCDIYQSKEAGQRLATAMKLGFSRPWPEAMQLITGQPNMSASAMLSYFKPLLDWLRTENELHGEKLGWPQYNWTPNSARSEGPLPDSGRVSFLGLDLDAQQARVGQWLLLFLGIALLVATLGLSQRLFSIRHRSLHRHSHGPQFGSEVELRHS", "experiment": "ACE inhibitory activity by HPLC (HHL substrate, hippuric acid at 228 nm)", "details": "peptide 10 mg/mL versus captopril 0.5 mg/mL, Dunnett's test, p < 0.05, Figure 8", "procedure": "The measurement of ACE inhibitory activity was conducted using HPLC in accordance with a modified method of Wu et al. [53]. All samples were prepared with 100 mM borate buffer, containing 300 mM NaCl at pH = 8.3. […] The peptide fractions and HHL were mixed and maintained at 37 °C for 10 min in 2 mL polyethylene microcentrifuge tubes. ACE was maintained at 37 °C for 10 min before the two solutions were combined. The combined mixture was incubated at 37 °C for 30 min with continuous agitation. In order to terminate the reaction, 85 μL of 1 M HCl was added. Samples were analyzed on a C18 column (3.0 mm × 150 mm, 5 μm, phenomenex) and hippuric acid (HA) and HHL were detected at 228 nm using HPLC system (Ultimate 3000 HPLC, Thermo Fisher Scientific Inc., Loughborough, UK). Data were analyzed using integration software (Chromeleon, Thermo Fisher Scientific Inc., Loughborough, UK)."}},
  "data": [
    {"compound": "Cc1cc(C(C)(C)C)c(O)c(C(C)(C)C)c1", "note": "[BHT, butylated hydroxyltoluene]", "values": [
      {"measurement": "Lipid Oxidation (%), TBARS method", "setting": "[1]", "result": 26.1, "unit": "%"},
      {"measurement": "DPPH Scavenging activity", "setting": "[2]", "result": 23.6, "unit": "%"},
      {"measurement": "DPPH Scavenging activity", "setting": "[2]; SD", "result": "23.60% ± 1.66%"},
      {"measurement": "Hydroxyl radical scavenging activity", "setting": "[3]", "result": "58.97% ± 1.02%"},
      {"measurement": "Superoxide anion scavenging activity", "setting": "[4]", "result": "67.45% ± 1.67%"},
      {"measurement": "Lipid Oxidation (%), FTC method", "setting": "[5]", "result": 23.3, "unit": "%"}
    ]},
    {"compound": "O=C(O)CN(CCN(CC(=O)O)CC(=O)O)CC(=O)O", "note": "[EDTA]", "values": [
      {"measurement": "Fe2+ chelating activity", "setting": "[6]", "result": "97.54% ± 1.79%"}
    ]},
    {"compound": "Cc1c(C)c2c(c(C)c1O)CCC(C)(C(=O)O)O2", "note": "(centres unmarked) [Trolox, trolox]", "values": [
      {"measurement": "Lipid Oxidation (%), TBARS method", "setting": "[1]", "result": 28.7, "unit": "%"},
      {"measurement": "DPPH Scavenging activity", "setting": "[2]", "result": 38.5, "unit": "%"},
      {"measurement": "DPPH Scavenging activity", "setting": "[2]; SD", "result": "38.46% ± 1.43%"},
      {"measurement": "Hydroxyl radical scavenging activity", "setting": "[3]", "result": "70.03% ± 3.48%"},
      {"measurement": "Superoxide anion scavenging activity", "setting": "[4]", "result": "63.48% ± 1.63%"},
      {"measurement": "Lipid Oxidation (%), FTC method", "setting": "[5]", "result": 32.2, "unit": "%"}
    ]},
    {"compound": "KLSDW", "values": [
      {"measurement": "Antioxidant activity (DPPH scavenging) of peptide compared with synthetic antioxidant", "setting": "[2]", "result": "not significantly different from the synthetic BHA antioxidant"}
    ]},
    {"compound": "SDNRNQGY", "values": [
      {"measurement": "ACE inhibitory activity of synthesized peptide compared with captopril", "setting": "[7]", "result": "not significantly different from that of the positive control captopril"}
    ]},
    {"compound": "WYGPD", "values": [
      {"measurement": "Antioxidant activity (DPPH scavenging) of peptide compared with synthetic antioxidant", "setting": "[2]", "result": "not significantly different from the synthetic BHA antioxidant"}
    ]},
    {"compound": "YPSPV", "values": [
      {"measurement": "ACE inhibitory activity of synthesized peptide compared with captopril", "setting": "[7]", "result": "higher ACE inhibitory activity compared with captopril"}
    ]}
  ]
}
